{"source": "patent US12241094B2", "about": "“Phenazine degrading agents and related compositions, methods and systems for interfering with viability of bacteria” (priority 2016, dated 2025)", "key": {"S. aureus MN8": {"tested_on": "S. aureus MN8", "settings": "100 μM PYO vs absence of PYO; cited from earlier work"}, "P. aeruginosa Δphz": {"tested_on": "P. aeruginosa Δphz", "settings": "25 μM PYO; images from Ramos et al., 2010; cited from earlier work"}, "PA14 [1]": {"tested_on": "PA14", "test": "Redox cycles over 7 days and support of survival (Table 1)", "assay_type": "cell-based, P. aeruginosa"}, "E. coli DH5α": {"tested_on": "E. coli DH5α", "settings": "100 μM PYO vs absence of PYO; cited from earlier work"}, "[2]": {"settings": "PYO's hydroxyl group; cited from earlier work"}, "[3]": {"tested_on": "Pa PA14 biofilm transcriptome", "test": "RNASeq transcriptome of biofilm cultures", "assay_type": "cell-based, P. aeruginosa", "settings": "5 h", "description": "Because 1-OH-PHZ induces iron starvation in A. fumigatus (Briard et al. (2015) Scientific Reports. 2015; 5), it was speculated that the abrogation of biofilm development in P. aeruginosa grown in the presence of either PodA or 1-OH-PHZox may be mediated by a response to Fe-limitation. To test this idea, changes to the transcriptome of Pa PA14 by RNASeq were assessed. After 5 h of incubation in the presence of PodA (1 μM), 1-OH-PHZ (200 μM) or PYO (200 μM), RNA was prepared from 1 ml of biofilm cultures (250 μl pooled from 4 static biofilm chambers) for analysis on an Illumina HiSeq 2500 sequencer at the Millard and Muriel Jacobs Genetics and Genomics Laboratory, as previously described (Babin et al. (2016) Proc Natl Acad Sci USA. 113(5):E597-E605; Kreamer et al. (2015) M Bio. 2015; 6(2):e02549. Epub 2015/02/26). This experiment was designed to identify genes that were likely to be specifically affected by PodA's transformation of PYO to 1-OH-PHZ under a condition that inhibited biofilm formation (FIG. 20A). As a reference for genes responsive to iron availability, these transcriptomes were compared to those previously found to respond to Fe(II) shock (Kreamer et al. (2015) M Bio. 2015; 6(2):e02549. Epub 2015/02/26)."}, "PA14 [4]": {"tested_on": "PA14", "test": "Reduction of redox-active compounds by PA14 (Table 1)", "assay_type": "cell-based, P. aeruginosa"}, "S. oneidensis MR1": {"tested_on": "S. oneidensis MR1", "settings": "100 μM PYO vs absence of PYO; cited from earlier work"}, "[5]": {"settings": "oxidized form, values from references a, c, d; cited from earlier work"}, "[6]": {"settings": "Kidani 1958; cited from earlier work"}, "[7]": {"tested_on": "P. aeruginosa planktonic culture", "test": "Phenazines in planktonic P. aeruginosa cultures (HPLC)", "assay_type": "cell-based", "settings": "24 hours", "source_text": "Product was cut with DpnI to remove WT vector, phosphorylated with T4 polynucleotide kinase, and ligated to generate a circular mutant protein expression construct. For D72N and Y156F mutants, DNA fragments encoding the mutation were synthesized (Integrated DNA Technologies) and cloned into pET-20b(+) as for the wild type sequence. Enzymes for cloning were purchased from New England Biolabs. Constructs were transferred to E. coli BL21(DE3) for expression. All mutations were confirmed by Sanger sequencing (Laragen and Retrogen). When necessary, 100 μg mL^−1 carbenicillin was included in all growth media to maintain selection for the plasmid. To measure the effect of PodA30-162 on phenazine production in planktonically grown P. aeruginosa, cultures were grown overnight in 5 mL volumes of tryptic soy broth (TSB) or succinate minimal medium (arginine medium recipe from Glasser et al., 2014 with 40 mM sodium succinate in place of arginine) (3) in the presence 1 μg mL^−1 PodA30-162. Cells were removed by centrifugation and supernatants were analyzed by HPLC as previously described (9). See below for a description of biofilm growth of P. aeruginosa PA14. To induce protein expression, an overnight culture was inoculated 1/1000 in Terrific Broth (BD Difco). Cultures were grown in baffled Erlenmeyer flasks (1 L culture per 3 L flask) at 37° C. with 150 rpm agitation in a shaking incubator (Innova 44 shaking incubator, New Brunswick). After 3-4 hours, the temperature was changed to 16° C. and cultures were induced with 50 μM (final concentration) IPTG and left to incubate overnight. Cells were then pelleted by centrifugation, flash frozen in liquid N2, and stored at −80° C. for up to 1 month before protein purification."}, "Pa PA14 biofilm": {"tested_on": "Pa PA14 biofilm", "test": "Biofilm biomass by DAPI intensity (Example 7)", "assay_type": "cell-based, P. aeruginosa", "description": "In this example, to check for an effect of PodA or 1-OH-PHZ on biofilm development, Pa PA14 was grown in 8-well chambered microscope slides designed for biofilm imaging, as previously reported (Das et al. (2015) Sci Rep. 5:8398). Overnight cultures of Pa PA14 were diluted to a starting optical density of 0.25 and grown directly on the slides (volume of 250 μl per chamber). After 5 h incubation at 37° C., planktonic cells were rinsed from the slide and remaining cells were stained with DAPI. Biofilm biomass was quantified by DAPI intensity on a Leica confocal microscope, with LAS X software. Pa PA14 incubated in the presence of 1 μM PodA or 100 μM 1-OHPHZox had ˜50% the biofilm biomass of Pa PA14 alone (FIG. 20A)."}, "P. aeruginosa biofilm [8]": {"tested_on": "P. aeruginosa biofilm", "test": "Optical density of P. aeruginosa biofilm", "assay_type": "cell-based", "settings": "PodA vs inactive E154A; 1-OH-PHZ vs 1% DMSO"}, "P. aeruginosa biofilm [9]": {"tested_on": "P. aeruginosa biofilm", "test": "Microcolony number and size in 5 hour biofilms on succinate minimal medium", "assay_type": "cell-based", "settings": "100 μM 1-OHPHZ or 0.5 μg mL-1 PodA", "source_text": "FIGS. 24A-C show charts and images illustrating results of exemplary experiments showing that PodA and 1-OH-PHZ inhibit the early stages of P. aeruginosa biofilm formation on succinate minimal medium. […] Numbers are averages and SD from 8 biological replicates."}, "Pa PA14 biofilms": {"tested_on": "Pa PA14 biofilms", "test": "Tobramycin tolerance of Pa PA14 biofilms", "assay_type": "cell-based, P. aeruginosa", "description": "In varying the amount of added 1-OH-PHZox, it was observed a dose-dependent response: the greater the [1-OHPHZox], the greater the biofilm inhibition, yet, under these conditions, saturating at 200 μM (FIG. 20B). To set the stage for flow-cell experiments to explore PodA and 1-OH-PHZ effects on biofilm inhibition and biofilm dissolution, the time course for biofilm development was mapped for Pa PA14 constitutively expressing YFP under constant flow in a minimal medium (FIG. 20C) as previously described (Wang et al. (2011) J Bacteriol. 193(14):3606-17). In addition, an appropriate initial tobramycin concentration to use in Pa PA14 biofilm experiments was also identified to test the hypothesis that PodA or 1-OH-PHZ can sensitize biofilms to antibiotics: Pa PA14 biofilms tolerate 20 μg/ml, 10× the MIC for tobramycin for planktonic cultures, similar to what has been reported for biofilms of Pa PAO1 (Bjarnsholt et al. (2005) Microbiol-Sgm. 2005; 151:373-83)."}, "[10]": {"test": "Redox potential E0' (vs. NHE) of redox-active compounds", "assay_type": "physicochemical", "settings": "measured in aqueous solution at pH 7 in this study (footnote b)"}}, "note": "Like-named read-outs stand apart in the source and are kept apart here. Marks after values point to notes of the source that are not given here."}
{"smiles": "Cn1c2cccc(=O)c-2nc2ccccc21", "note": "[PYO, Pyocyanin]", "values": [{"measurement": "colony growth", "setting": "S. aureus MN8", "value": "decreased colony growth"}, {"measurement": "biofilm production of Δphz", "setting": "P. aeruginosa Δphz", "value": "restored"}, {"measurement": "# of Redox cycles over 7 days", "setting": "PA14 [1]", "value": 31}, {"measurement": "Support survival?", "setting": "PA14 [1]", "value": "Yes"}, {"measurement": "colony growth", "setting": "E. coli DH5α", "value": "decreased colony growth"}, {"measurement": "pKa", "setting": "[2]", "value": "~5"}, {"measurement": "log(2) changes relative to untreated control, metal scavenging and starvation response genes (FIG. 21A)", "setting": "[3]; PodA 1 μM, 1-OH-PHZ 200 μM, PYO 200 μM", "value": "~0 log(2)"}, {"measurement": "Reduction by PA14?", "setting": "PA14 [4]", "value": "Yes"}, {"measurement": "colony growth", "setting": "S. oneidensis MR1", "value": "decreased colony growth"}, {"measurement": "E^0, (vs. NHE)", "setting": "[5]", "value": "−40^a mV"}]}
{"smiles": "Oc1cccc2nc3ccccc3nc12", "note": "[1-OH-PHZ, 1-Hydroxyphenazine]", "values": [{"measurement": "log of the equilibrium constant βmlh of binding copper", "setting": "[6]", "value": 8.68}, {"measurement": "# of Redox cycles over 7 days", "setting": "PA14 [1]", "value": 14}, {"measurement": "Support survival?", "setting": "PA14 [1]", "value": "Yes"}, {"measurement": "production of PYO", "setting": "[7]; minimal medium with succinate", "value": "negative impact"}, {"measurement": "phenazine production", "setting": "[7]; tryptic soy broth", "value": "changes to the concentrations of all four phenazines"}, {"measurement": "upregulation of genes in iron responsive pathways", "setting": "[3]; 200 μM", "value": "2-10 fold"}, {"measurement": "expression of small gene cluster incl. QapR regulon", "setting": "[3]", "value": "upregulated modestly"}, {"measurement": "biofilm biomass relative to Pa PA14 alone", "setting": "Pa PA14 biofilm; 1 μM PodA or 100 μM 1-OHPHZox, 5 h at 37° C", "value": "~50", "unit": "%"}, {"measurement": "biofilm formation compared to untreated control", "setting": "Pa PA14 biofilm; PodA 1 μM, 1-OH-PHZ 100 μM, total DAPI staining", "value": "inhibit biofilm formation"}, {"measurement": "concentration at which biofilm inhibition saturates", "setting": "Pa PA14 biofilm; dose-dependent response", "value": 200, "unit": "µM"}, {"measurement": "Reduction by PA14?", "setting": "PA14 [4]", "value": "Yes"}, {"measurement": "optical density of biofilm", "setting": "P. aeruginosa biofilm [8]", "value": "not significantly different"}, {"measurement": "E^0, (vs. NHE)", "setting": "[5]", "value": "−174^a mV"}, {"measurement": "microcolony diameter", "setting": "P. aeruginosa biofilm [9]", "value": "does decrease"}, {"measurement": "number of microcolonies formed", "setting": "P. aeruginosa biofilm [9]; vs inactive E154A", "value": "does not significantly affect"}]}
{"smiles": "NC[C@H]1O[C@H](O[C@H]2[C@H](O)[C@@H](O[C@H]3O[C@H](CO)[C@@H](O)[C@H](N)[C@H]3O)[C@H](N)C[C@@H]2N)[C@H](N)C[C@@H]1O", "note": "[tobramycin]", "values": [{"measurement": "tobramycin concentration tolerated by biofilms", "setting": "Pa PA14 biofilms", "value": 20, "unit": "µg/mL"}, {"measurement": "tolerated concentration relative to MIC for planktonic cultures", "setting": "Pa PA14 biofilms", "value": 10, "unit": "× the MIC"}]}
{"smiles": "CN(C)c1ccc2nc3ccc(=[N+](C)C)cc-3sc2c1", "note": "[Methylene blue (MB), Methylene blue]", "values": [{"measurement": "# of Redox cycles over 7 days", "setting": "PA14 [1]", "value": 3}, {"measurement": "Support survival?", "setting": "PA14 [1]", "value": "No"}, {"measurement": "E^0, (vs. NHE)", "setting": "[10]", "value": 0, "unit": "mV"}, {"measurement": "Reduction by PA14?", "setting": "PA14 [4]", "value": "Yes"}, {"measurement": "E^0, (vs. NHE)", "setting": "[5]", "value": "+11 mV"}]}
{"smiles": "O=C(O)Cc1cc(O)ccc1O", "note": "[Homogentisic acid (HMA), Homogentisic acid]", "values": [{"measurement": "# of Redox cycles over 7 days", "setting": "PA14 [1]", "value": "No cycle"}, {"measurement": "Support survival?", "setting": "PA14 [1]", "value": "No"}, {"measurement": "E^0, (vs. NHE)", "setting": "[10]", "value": "+306^b mV"}]}
